Assay results: patent US11993573B2, “Chromane-substituted, tetrahydroquinoline-substituted and thiochromane-substituted heteroarotinoids as anti-cancer agents” (THE BOARD OF REGENTS FOR OKLAHOMA STATE UNIVERSITY, priority 2018, dated 2024)
Like-named read-outs stand apart in the source and are kept apart here.

What was measured:
[1] = SHetA2, background; cited from earlier work
[2] = tested on: 60 cancer cell lines available from the National Cancer Institute; conditions: SHetA2, background; cited from earlier work
[3] = tested on: human ovarian cancer cell line A2780; experiment: Growth inhibition assay (CellTiter 96 Non-Rad Cell Proliferation Assay); format: cell-based; conditions: for IC50 / Emax: Homo sapiens
Description: To illustrate the general activity of the compounds inhibiting growth of human […] ovarian cancer cells, selected compounds were synthesized and evaluated. The compounds were dissolved in DMSO at a concentration of 0.01 M. The human ovarian cancer cell line A2780 was plated in 96-well tissue culture dishes at a concentration of 3000 cells per well in RPMI medium supplemented with 10% fetal bovine serum and a mixture of antibiotics and antimycotics. The next day, the cultures were treated in triplicate with compound concentrations ranging from 2 μM to 8 μM increments. For compound 12, additional experiments were performed with concentrations of 10 μM and a series of two-fold dilutions to 156 nM. Control cultures were treated with DMSO solvent only. After 72 h of incubation, the […] 96® Non-Rad Cell Proliferation Assay (Promega) was used to quantify the remaining metabolically living cells. After subtracting blank values, the optical density (OD) readouts of the assay for the treated cultures were normalized with the average OD of the control cultures. For each compound, the experiment was repeated at least once, resulting in a minimum of 6 dose-response curves. For SHetA2, 24 response curves were available for statistical fitting parameters. A custom program was written in GNU Octave, a free software compatible with Matlab, to fit the dose-response curves with a four-parameter sigmoid function, extracting the IC50 and efficacy (the maximal % growth inhibition) parameters.
To illustrate the useful biological activity of these chroman-substituted and tetrahydroquinoline-substituted heteroarotinoids, the compounds were screened against human […] ovarian cancer cells.

[4] = A2780, 72 h, Table 1, chroman-containing series
[5] = A2780, 72 h, Table 1, maximal % growth inhibition, A2780, 72 h, read-out: Efficacy
[6] = A2780, 72 h, Table 2, tetrahydroquinoline-containing members
[7] = A2780, 72 h, Table 2, maximal % growth inhibition, A2780, 72 h, read-out: Efficacy

CC1(C)CC(C)(C)c2cc(NC(=S)Nc3ccc([N+](=O)[O-])cc3)ccc2S1 [SHetA2, reference compound]
birth defects in animal studies [1]: does not cause birth defects | skin irritation [1]: no skin irritation | toxicity toward normal tissues [1]: essentially no toxicity toward normal tissues | growth inhibition of cancer cell lines [2]: inhibits the growth of all 60 cancer cell lines | IC50 [3, 4]: 3.17 µM | Emax [3, 5]: 84.3% | IC50 [3, 6]: 3.17 µM | Emax [3, 7]: 84.3% | IC50 ([3]; A2780, Table 3, 14 series (thiochroman), A2780): 3.17 ± 0.1 µM | Emax ([3]; A2780, Table 3, 14 series, A2780, read-out: % Efficacy): 84.3 ± 0.7% | IC50 ([3]; A2780, running text, A2780): 3 µM

CC1(C)CCNc2ccc(NC(=O)Nc3ccc([N+](=O)[O-])cc3)cc21 [Compound 9a, 1-(4,4-Dimethyl-1,2,3,4-tetrahydroquinolin-6-yl)-3-(4-nitrophenyl)urea]
melting point: 219 to 220 °C | IC50 [3, 6]: 6.9 µM | Emax [3, 7]: 17.1%

CC1(C)CCNc2ccc(NC(=S)Nc3ccc([N+](=O)[O-])cc3)cc21 [Compound 9b, 1-(4,4-Dimethyl-1,2,3,4-tetrahydroquinolin-6-yl)-3-(4-nitrophenyl)thiourea]
melting point: 150 to 152 °C | IC50 [3, 6]: 7.1 µM | Emax [3, 7]: 17.8%

CCC1(CC)CC(C)(C)Oc2ccc(NC(=S)Nc3ccc(C(F)(F)F)cc3)cc21 [Compound 7b, 1-(4,4-Diethyl-2,2-dimethylchroman-6-yl)-3-(4-(trifluoromethyl)phenyl)thiourea]
melting point: 155 to 156 °C | IC50 [3, 4]: 4.7 µM | Emax [3, 5]: 11.8%

CN1c2ccc(NC(=O)Nc3ccc(OC(F)(F)F)cc3)cc2C(C)(C)C(=O)C1(C)C [Compound 11e, 1-(1,2,2,4,4-Pentamethyl-3-oxo-1,2,3,4-tetrahydroquinolin-6-yl)-3-(4-(trifluoromethoxy)phenyl)urea]
melting point: 191 to 192 °C | IC50 [3, 6]: 2.4 µM | Emax [3, 7]: 91.3%

CC1(C)CC(C)(C)c2cc(NC(=O)Nc3ccc(C#N)cc3)ccc2O1 [Compound 3b, 1-(4-Cyanophenyl)-3-(2,2,4,4-tetramethylchroman-6-yl)urea]
melting point: 225 to 226 °C | efficacy compared with SHetA2 ([3]; comparison in words, A2780): exceeded the efficacy of SHetA2

CN1c2ccc(NC(=S)Nc3ccc(OC(F)(F)F)cc3)cc2C(C)(C)C(O)C1(C)C (centres unmarked) [Compound 13f, 1-(3-Hydroxy-1,2,2,4,4-pentamethyl-1,2,3,4-tetrahydroquinolin-6-yl)-3-(4-(trifluoromethoxy)phenyl)thiourea]
melting point: 97 to 99 °C | IC50 [3, 6]: 13.1 µM | Emax [3, 7]: 15.3%

CN1c2ccc(NC(=S)Nc3ccc([N+](=O)[O-])cc3)cc2C(C)(C)C(=O)C1(C)C [Compound 11b, 1-(4-Nitrophenyl)-3-(1,2,2,4,4-pentamethyl-3-oxo-1,2,3,4-tetrahydroquinolin-6-yl)thiourea]
melting point: 145 to 147 °C | IC50 [3, 6]: 4.4 µM | Emax [3, 7]: 91.4%

CN1c2ccc(NC(=S)Nc3ccc(OC(F)(F)F)cc3)cc2C(C)(C)C(=O)C1(C)C [Compound 11f, 1-(1,2,2,4,4-Pentamethyl-3-oxo-1,2,3,4-tetrahydroquinolin-6-yl)-3-(4-(trifluoromethoxy)phenyl)thiourea]
melting point: 83 to 85 °C | IC50 [3, 6]: 5.4 µM | Emax [3, 7]: 76%

CC1(C)CC(C)(C)c2cc(NC(=O)Nc3ccc(C(F)(F)F)cc3)ccc2O1 [Compound 3a, 1-(2,2,4,4-Tetramethylchroman-6-yl)-3-(4-(trifluoromethyl)phenyl)urea]
melting point: 245 to 246 °C | IC50 [3, 4]: 4.1 µM | Emax [3, 5]: 79%

CCC1(CC)CC(CC)(CC)c2cc(NC(=O)Nc3ccc(OC(F)(F)F)cc3)ccc2O1 [Compound 8d, 1-(2,2,4,4-Tetraethylchroman-6-yl)-3-(4-(trifluoromethoxy)phenyl)urea]
melting point: 180 to 181 °C | IC50 [3, 4]: 3 µM | Emax [3, 5]: 67% | IC50 compared with SHetA2 ([3]; comparison in words, A2780, 'exceeded' = lower IC50 in Table 1): exceeded

CC1(C)CCOc2ccc(NC(=S)Nc3ccc(C(F)(F)F)cc3)cc21 [Compound 4b, 1-(4,4-Dimethylchroman-6-yl)-3-(4-(trifluoromethyl)phenyl)thiourea]
melting point: 147 to 149 °C | IC50 [3, 4]: 5.5 µM | Emax [3, 5]: 28%

CC1(C)CCOc2ccc(NC(=O)Nc3ccc(OC(F)(F)F)cc3)cc21 [Compound 5c, 1-(4,4-Dimethylchroman-6-yl)-3-(4-(trifluoromethoxy)phenyl)urea]
melting point: 230 to 231 °C | IC50 [3, 4]: 3.5 µM | Emax [3, 5]: 36%
